Results on two compounds are retold here after ChEMBL document CHEMBL1255477, “In vitro properties of BAL30072, a novel siderophore sulfactam with activity against multiresistant gram-negative bacilli” (Antimicrob Agents Chemother, 2010).

The subject of assay [1] is Escherichia coli. The assay is described as follows: Antimicrobial activity against Escherichia coli W3110 assessed as appearance of spheroplast at 4 ug/mL after 3 hrs by phase-contrast microscopy. Format: functional, organism-based.
The next assay deals with Enterobacteriaceae. The assay is described as follows: Antimicrobial activity against Enterobacteriaceae by broth dilution method. Format: functional. (In broth dilution the organism is exposed to a series of concentrations in liquid medium.)
The test system of assay [2] is Enterobacter cloacae. The assay is described as follows: Antimicrobial activity against Enterobacter cloacae S9369 assessed as highest concentration at which colonies reappeared. The assay is classed as functional.
For assay [3], the system named is Enterobacter cloacae. The assay is described as follows: Antimicrobial activity against Enterobacter cloacae S9369 assessed as log reduction in colony count after 24 hrs. The assay is classed as functional.
The subject of assay [4] is Pseudomonas aeruginosa. The assay is described as follows: Antimicrobial activity against Pseudomonas aeruginosa 860 assessed as highest concentration at which colonies reappeared. Format: functional.
A short description of assay [5]: Inhibition of beta-lactamase TEM-3.
A short description of assay [6]: Inhibition of Escherichia coli Penicillin-binding protein 1B.
Assay [7] can be described thus: Inhibition of Escherichia coli Penicillin-binding protein 2.
In assay [8] the test system is Escherichia coli. The assay is described as follows: Antimicrobial activity against Escherichia coli W3110 assessed as appearance of short filaments at 4 ug/mL after 3 hrs by phase-contrast microscopy. The assay is classed as functional, organism-based.
Another assay addresses Beta-lactamase (Citrobacter freundii, UniProt P05193). The assay is described as follows: Inhibition of Citrobacter freundii AmpC.
Assay [9] can be described thus: Inhibition of Escherichia coli Penicillin-binding protein 3.
A further assay has as its target AmpC (Escherichia coli, UniProt Q83TT7). The assay is described as follows: Inhibition of Escherichia coli ATCC 25922 AmpC.
Assay [10] is described as follows: Inhibition of beta-lactamase SHV-2.
The nature of assay [11]: Inhibition of beta-lactamase SHV-4.
The nature of assay [12]: Inhibition of beta-lactamase KPC-2.
The subject of assay [13] is Pseudomonas aeruginosa. The assay is described as follows: Antimicrobial activity against Pseudomonas aeruginosa 527 by broth dilution method. Format: functional.
In assay [14] the test system is Pseudomonas aeruginosa. The assay is described as follows: Antimicrobial activity against Pseudomonas aeruginosa 621 by broth dilution method. Format: functional.
Assay [15] concerns Pseudomonas aeruginosa. The assay is described as follows: Antimicrobial activity against Pseudomonas aeruginosa HPA10586 by broth dilution method. The assay is classed as functional.
Another assay concerns Acinetobacter junii. The assay is described as follows: Antimicrobial activity against Acinetobacter junii 15218 by broth dilution method. Format: functional.
In another assay the test system is Acinetobacter baumannii. The assay is described as follows: Antimicrobial activity against Acinetobacter baumannii HPA74510 by broth dilution method. The assay is classed as functional.
In assay [16] the test system is Escherichia coli. The assay is described as follows: Antimicrobial activity against Escherichia coli W3110 by broth dilution method. The assay is classed as functional.
The test system of assay [17] is Pseudomonas aeruginosa. The assay is described as follows: Antimicrobial activity against Pseudomonas aeruginosa BA(C2-107) mutant assessed as doubling time. Format: functional.

What is called MIC50 is the lowest concentration that inhibits either 50% of growth or 50% of the strains tested, depending on the study. As a reminder, the IC50 is the concentration at which inhibition is half-maximal. Usually MIC stands for the lowest concentration that inhibits growth of the organism. A lower MIC goes with a more susceptible organism.

Converted amounts (≈) assume the structure as drawn. The source made the active and inactive calls. The calls are words filed in the database; no cut-off is given here. Some results are limits rather than exact numbers.

Sequence of Beta-lactamase (P05193 whole entry): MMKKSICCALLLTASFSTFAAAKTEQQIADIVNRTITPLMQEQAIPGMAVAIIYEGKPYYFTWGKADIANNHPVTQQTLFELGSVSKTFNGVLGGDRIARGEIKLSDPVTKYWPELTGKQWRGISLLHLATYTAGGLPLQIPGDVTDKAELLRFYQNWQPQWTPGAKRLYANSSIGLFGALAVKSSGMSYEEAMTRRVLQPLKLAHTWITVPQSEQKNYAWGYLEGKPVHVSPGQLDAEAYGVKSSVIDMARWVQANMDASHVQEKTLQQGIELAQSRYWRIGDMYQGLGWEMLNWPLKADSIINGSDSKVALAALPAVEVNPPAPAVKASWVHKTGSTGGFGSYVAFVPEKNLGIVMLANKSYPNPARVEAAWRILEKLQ
Sequence of AmpC (Q83TT7 whole entry): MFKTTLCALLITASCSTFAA

Turning to `CC1(C)[C@H](NC(=O)/C(=N\OCc2cc(=O)c(O)cn2O)c2csc(N)n2)C(=O)N1OS(=O)(=O)O` (stereo in doubt), the result with Escherichia coli [1] and in the assay with Escherichia coli [8] was Active. The compound also gave an MIC50 in the assay with Enterobacteriaceae of 2 µg/mL (≈ 3.86 µM). Further, the Activity in the assay on Enterobacter cloacae [2] stood at 8 mg/L; with Pseudomonas aeruginosa [4] it was 32 mg/L. The FC with Enterobacter cloacae [3] was found to be 3. Moreover, the 50% inhibitory concentration (IC50) in assay [5] came to 4.6 µM; in assay [6], 1.9 µM; in assay [7] it was 30 µM; against Beta-lactamase, 2.7 µM; in assay [9] it was 0.048 µM; on AmpC, 0.5 µM. Moreover, the IC50 in [10] was 3.4 µM; in assay [11], 4.3 µM; in assay [12], more than 2500 µM.
For `C[C@@H](O)[C@H]1C(=O)N2C(C(=O)O)=C(S[C@@H]3CN[C@H](C(=O)N(C)C)C3)[C@H](C)[C@H]12` [MEROPENEM], the minimal inhibitory concentration (MIC) against Pseudomonas aeruginosa [13] is 2 µg/mL (≈ 5.22 µM); against Pseudomonas aeruginosa [14], 0.125 µg/mL (≈ 0.326 µM); against Pseudomonas aeruginosa [15] it was more than 128 µg/mL; in the assay with Acinetobacter junii it was 0.25 µg/mL (≈ 0.652 µM); in the assay with Acinetobacter baumannii it was 1 µg/mL (≈ 2.61 µM); in the assay on Escherichia coli [16], 0.25 µg/mL (≈ 0.652 µM). Moreover, the Time with Pseudomonas aeruginosa [17] was found to be 4.1 h.
